# From paper PMC9005971, “Discovery of 2-(4-Acrylamidophenyl)-Quinoline-4-Carboxylic Acid Derivatives as Potent SIRT3 Inhibitors” (Frontiers in Chemistry, 2022)
# What was measured:
# [1] = system: THP-1 cells; test: In vitro antiproliferative CCK-8 assay, THP-1; assay type: cell-based; details: Homo sapiens, dose of 1 μM, mean of three experiments, read-out: THP-1 percentage inhibitory rate
# Experimental: The proliferation of THP-1, MOLM-13, SEM and MV4-11 cells was tested by CCK-8 assay. Briefly, cells were seeded in 96-well plate with about 5 × 10^3 cells in each well. The cells were treated with P6 or Ara-C (0–10 µM) after 24 h of incubation. CCK-8 reagent ([…]) was added to each well after 72 h of incubation, and cells were incubated at 37°C for 4 h. The light absorbance at 450 nm was measured by using an Opsys microplate reader (Dynex Technologirs, Chantilly, VA, United States). Results are illustrated as percent of cell viability normalized to DMSO-treated control cells.
# [2] = target: T1, SIRT3 (Homo sapiens, UniProt Q9NTG7); test: SIRT3 enzyme inhibitory assay (fluorescence); assay type: biochemical; details: dose of 10 μM; mean of three experiments; read-out: SIRT3 percentage inhibitory rate
# T1 sequence (Q9NTG7 1-399): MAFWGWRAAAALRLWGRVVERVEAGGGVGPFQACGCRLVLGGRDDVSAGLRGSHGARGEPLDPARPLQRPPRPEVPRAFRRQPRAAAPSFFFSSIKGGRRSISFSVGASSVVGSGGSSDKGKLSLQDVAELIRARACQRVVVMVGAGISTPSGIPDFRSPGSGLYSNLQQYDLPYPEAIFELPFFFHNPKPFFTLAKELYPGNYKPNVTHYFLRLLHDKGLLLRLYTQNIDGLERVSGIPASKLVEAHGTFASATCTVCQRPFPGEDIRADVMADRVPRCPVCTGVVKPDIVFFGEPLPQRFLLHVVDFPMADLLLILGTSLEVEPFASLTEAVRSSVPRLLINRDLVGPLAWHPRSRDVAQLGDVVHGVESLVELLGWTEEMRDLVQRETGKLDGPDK
# Experimental: (§1) All of the enzymatic reactions were conducted at 37°C for 30 min. […] The compounds were diluted in 10% DMSO and 5 ul of the dilution was added to each reaction mixture (50 ul). The assay was performed by quantitating the amount of fluorescent product generated from the enzyme reaction. Fluorescence intensity is then analyzed at excitation wavelength of 350–360 nm and emission wavelength of 450–460 nm on a SpectraMax M5 microtiter plate reader. The IC50 values were calculated using Prism GraphPad software.
# [3] = target: T2, SIRT1 (Homo sapiens, UniProt Q96EB6); test: SIRT1 enzyme inhibitory assay (fluorescence); assay type: biochemical; details: SIRT1 enzyme activity; for activity at 0.333 µM: 333 nM
# T2 sequence (Q96EB6 1-747): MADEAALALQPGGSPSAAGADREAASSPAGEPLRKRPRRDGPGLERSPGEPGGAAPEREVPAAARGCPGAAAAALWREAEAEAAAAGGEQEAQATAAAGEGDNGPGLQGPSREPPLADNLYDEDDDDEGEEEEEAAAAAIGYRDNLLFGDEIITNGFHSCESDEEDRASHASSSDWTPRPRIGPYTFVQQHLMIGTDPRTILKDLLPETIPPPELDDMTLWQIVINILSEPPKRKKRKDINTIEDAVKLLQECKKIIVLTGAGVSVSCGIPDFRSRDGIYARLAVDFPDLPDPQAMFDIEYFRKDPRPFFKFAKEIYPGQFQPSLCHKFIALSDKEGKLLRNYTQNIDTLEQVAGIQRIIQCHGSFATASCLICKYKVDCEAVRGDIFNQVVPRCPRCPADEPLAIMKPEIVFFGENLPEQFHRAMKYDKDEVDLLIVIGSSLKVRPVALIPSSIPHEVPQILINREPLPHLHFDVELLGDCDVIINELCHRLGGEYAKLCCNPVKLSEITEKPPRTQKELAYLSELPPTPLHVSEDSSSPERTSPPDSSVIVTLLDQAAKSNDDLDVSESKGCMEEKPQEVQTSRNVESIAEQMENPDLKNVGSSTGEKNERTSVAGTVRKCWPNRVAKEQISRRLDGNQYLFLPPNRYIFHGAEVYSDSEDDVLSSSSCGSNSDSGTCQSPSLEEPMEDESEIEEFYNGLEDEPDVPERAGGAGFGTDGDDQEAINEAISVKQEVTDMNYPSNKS
# Experimental: as §1
# [4] = target: T3, SIRT2 (Homo sapiens, UniProt Q8IXJ6); test: SIRT2 enzyme inhibitory assay (fluorescence); assay type: biochemical; details: for activity at 0.01 µM / activity at 0.033 µM / activity at 0.1 µM / activity at 0.333 µM / activity at 1 µM / activity at 3.3 µM / activity at 10 µM / activity at 33 µM / activity at 100 µM: SIRT2 enzyme activity; for activity at 0.01 µM: 10 nM; for activity at 0.033 µM: 33 nM; for activity at 0.1 µM: 100 nM; for activity at 0.333 µM: 333 nM
# T3 sequence (Q8IXJ6 1-389): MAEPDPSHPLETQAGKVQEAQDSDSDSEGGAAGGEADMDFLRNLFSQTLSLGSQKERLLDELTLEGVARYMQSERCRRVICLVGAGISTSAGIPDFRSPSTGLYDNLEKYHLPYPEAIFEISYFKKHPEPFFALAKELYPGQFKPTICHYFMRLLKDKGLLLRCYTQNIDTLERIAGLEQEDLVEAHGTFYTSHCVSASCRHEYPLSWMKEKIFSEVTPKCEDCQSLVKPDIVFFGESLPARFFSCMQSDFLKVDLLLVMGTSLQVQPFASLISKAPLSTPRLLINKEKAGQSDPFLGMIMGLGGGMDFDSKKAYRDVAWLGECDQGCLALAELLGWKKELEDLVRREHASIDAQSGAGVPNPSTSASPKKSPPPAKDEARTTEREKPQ
# Experimental: as §1
smiles,measurement,setting,value
"C=CC(=O)Nc1ccc(-c2cc(C(=O)Nc3ccc(CCCCC)cc3)c3ccccc3n2)cc1 [Compound P18, 2-(4-Acryloylamino-phenyl)-quinoline-4-carboxylic acid (4-pentyl-phenyl)-amide]",inhibition at 1 µM,[1],30 ± 1.39%
same,inhibition at 10 µM,[2],30.6 ± 2.89%
"C=CC(=O)Nc1ccc(-c2cc(C(=O)Nc3ccc(C)cc3)c3ccccc3n2)cc1 [Compound P12, 2-(4-Acryloylamino-phenyl)-quinoline-4-carboxylic acid p-tolylamide]",inhibition at 1 µM,[1],72.8 ± 3.25%
same,inhibition at 10 µM,[2],38.9 ± 2.62%
C=CC(=O)Nc1ccc(-c2cc(C(=O)N3CCN(c4ccc(F)cc4)CC3)c3ccccc3n2)cc1 [Compound P1],inhibition at 1 µM,[1],32.5 ± 2.56%
same,inhibition at 10 µM,[2],20.2 ± 1.22%
"C=CC(=O)Nc1ccc(-c2cc(C(=O)Nc3ccc(F)cc3)c3ccccc3n2)cc1 [Compound P14, 2-(4-Acryloylamino-phenyl)-quinoline-4-carboxylic acid (4-fluoro-phenyl)-amide]",inhibition at 1 µM,[1],53.2 ± 4.26%
same,inhibition at 10 µM,[2],26.4 ± 1.78%
"NC(=O)c1cccnc1 [Nicotinamide, reference compound]",activity at 0.01 µM,"[3]; 10 nM, Repeat2",98%
same,activity at 0.033 µM,"[3]; 33 nM, Repeat2",99%
same,activity at 0.1 µM,"[3]; 100 nM, Repeat1",98%
same,activity at 0.333 µM,[3]; Repeat1,99%
same,activity at 0.333 µM,[3]; Repeat2,97%
same,activity at 1 µM,"[3]; 1 µM, Repeat1",100%
same,activity at 3.3 µM,[3]; Repeat1,93%
same,activity at 3.3 µM,[3]; Repeat2,96%
same,activity at 10 µM,[3]; Repeat1,79%
same,activity at 10 µM,[3]; Repeat2,73%
same,activity at 33 µM,[3]; Repeat1,59%
same,activity at 33 µM,[3]; Repeat2,52%
same,activity at 100 µM,[3]; Repeat1,10%
same,activity at 100 µM,[3]; Repeat2,17%
same,activity at 0.01 µM,[4]; Repeat1,100%
same,activity at 0.01 µM,[4]; Repeat2,99%
same,activity at 0.033 µM,[4]; Repeat1,99%
same,activity at 0.033 µM,[4]; Repeat2,98%
same,activity at 0.1 µM,[4]; Repeat1,97%
same,activity at 0.333 µM,[4]; Repeat1,100%
same,activity at 0.333 µM,[4]; Repeat2,100%
same,activity at 1 µM,[4]; Repeat2,99%
same,activity at 3.3 µM,[4]; Repeat1,92%
same,activity at 3.3 µM,[4]; Repeat2,91%
same,activity at 10 µM,[4]; Repeat1,79%
same,activity at 10 µM,[4]; Repeat2,69%
same,activity at 33 µM,[4]; Repeat1,39%
same,activity at 33 µM,[4]; Repeat2,43%
same,activity at 100 µM,[4]; Repeat1,17%
same,activity at 100 µM,[4]; Repeat2,12%
"C=CC(=O)Nc1ccc(-c2cc(C(=O)N3CCN(CCc4ccccc4)CC3)c3ccccc3n2)cc1 [Compound P9, N-{4-[4-(4-Phenethyl-piperazine-1-carbonyl)-quinolin-2-yl]-phenyl}-acrylamide]",inhibition at 1 µM,[1],11.7 ± 0.88%
same,inhibition at 10 µM,[2],30.2 ± 1.94%
"C=CC(=O)Nc1ccc(-c2cc(C(=O)Nc3cc(OC)cc(OC)c3)c3ccccc3n2)cc1 [Compound P15, 2-(4-Acryloylamino-phenyl)-quinoline-4-carboxylic acid (3,5-dimethoxy-phenyl)-amide]",inhibition at 1 µM,[1],49.6 ± 2.52%
same,inhibition at 10 µM,[2],42.8 ± 1.26%
"C=CC(=O)Nc1ccc(-c2cc(C(=O)Nc3ccc(OC)cc3)c3ccccc3n2)cc1 [Compound P16, 2-(4-Acryloylamino-phenyl)-quinoline-4-carboxylic acid (4-methoxy-phenyl)-amide]",inhibition at 1 µM,[1],13.3 ± 1.23%
same,inhibition at 10 µM,[2],28.4 ± 1.85%
"C=CC(=O)Nc1ccc(-c2cc(C(=O)Nc3cccc(OC)c3)c3ccccc3n2)cc1 [Compound P21, 2-(4-Acryloylamino-phenyl)-quinoline-4-carboxylic acid (3-methoxy-phenyl)-amide]",inhibition at 1 µM,[1],35.4 ± 1.58%
same,inhibition at 10 µM,[2],22.2 ± 1.72%
C=CC(=O)Nc1ccc(-c2cc(C(=O)Nc3ccc(N4CCN(C)CC4)cc3)c3ccccc3n2)cc1 [Compound P19],activity at 0.01 µM,[4]; Repeat1,101%
same,activity at 0.01 µM,[4]; Repeat2,99%
same,activity at 0.033 µM,[4]; Repeat1,99%
same,activity at 0.033 µM,[4]; Repeat2,99%
same,activity at 0.1 µM,[4]; Repeat1,101%
same,activity at 0.1 µM,[4]; Repeat2,101%
same,activity at 0.333 µM,[4]; Repeat1,96%
same,activity at 0.333 µM,[4]; Repeat2,98%
same,activity at 1 µM,[4]; Repeat1,97%
same,activity at 1 µM,[4]; Repeat2,98%
same,activity at 3.3 µM,[4]; Repeat1,100%
same,activity at 3.3 µM,[4]; Repeat2,99%
same,activity at 10 µM,[4]; Repeat1,91%
same,activity at 10 µM,[4]; Repeat2,86%
same,activity at 33 µM,[4]; Repeat1,79%
same,activity at 33 µM,[4]; Repeat2,76%
same,activity at 100 µM,[4]; Repeat1,34%
same,activity at 100 µM,[4]; Repeat2,28%
same,IC50,[4]; mean of two experiments,63.6 ± 4.2 µM
"C=CC(=O)Nc1ccc(-c2cc(C(=O)N3CCN(C(=O)OC(C)(C)C)CC3)c3ccccc3n2)cc1 [Compound P2, 4-[2-(4-Acryloylamino-phenyl)-quinoline-4-carbonyl]-piperazine-1-carboxylic acid tert-butyl ester]",inhibition at 1 µM,[1],26.4 ± 1.55%
same,inhibition at 10 µM,[2],23.5 ± 2.13%
"C=CC(=O)Nc1ccc(-c2cc(C(=O)Nc3ccc(OCC)cc3)c3ccccc3n2)cc1 [Compound P17, 2-(4-Acryloylamino-phenyl)-quinoline-4-carboxylic acid (4-ethoxy-phenyl)-amide]",inhibition at 1 µM,[1],13.8 ± 1.01%
same,inhibition at 10 µM,[2],29.6 ± 1.43%
"C=CC(=O)Nc1ccc(-c2cc(C(=O)N3CCN(c4ccccc4OC)CC3)c3ccccc3n2)cc1 [Compound P8, N-(4-{4-[4-(2-Methoxy-phenyl)-piperazine-1-carbonyl]-quinolin-2-yl}-phenyl)-acrylamide]",inhibition at 1 µM,[1],73.7 ± 3.74%
same,inhibition at 10 µM,[2],45.5 ± 3.67%
"C=CC(=O)Nc1ccc(-c2cc(C(=O)N3CCN(c4ccc(OC)cc4)CC3)c3ccccc3n2)cc1 [Compound P7, N-(4-{4-[4-(4-Methoxy-phenyl)-piperazine-1-carbonyl]-quinolin-2-yl}-phenyl)-acrylamide]",inhibition at 1 µM,[1],12.4 ± 1.07%
same,inhibition at 10 µM,[2],24.9 ± 1.47%
"C=CC(=O)Nc1ccc(-c2cc(C(=O)N3CCN(C(C)C)CC3)c3ccccc3n2)cc1 [Compound P3, N-{4-[4-(4-Isopropyl-piperazine-1-carbonyl)-quinolin-2-yl]-phenyl}-acrylamide]",inhibition at 1 µM,[1],8.78 ± 0.37%
same,inhibition at 10 µM,[2],30.6 ± 2.45%
"C=CC(=O)Nc1ccc(-c2cc(C(=O)N3CCN(c4cccc(Cl)c4)CC3)c3ccccc3n2)cc1 [Compound P4, N-(4-{4-[4-(3-Chloro-phenyl)-piperazine-1-carbonyl]-quinolin-2-yl}-phenyl)-acrylamide]",inhibition at 1 µM,[1],57.9 ± 3.04%
same,inhibition at 10 µM,[2],21.8 ± 1.62%
